Reference: ChEMBL document CHEMBL1151757, “Synthesis, radiosynthesis, and biological evaluation of fluorine-18-labeled 2beta-carbo(fluoroalkoxy)-3beta-(3'-((Z)-2-haloethenyl)phenyl)nortropanes: candidate radioligands for in vivo imaging of the serotonin transporter with positron emission tomography” (J Med Chem, 2008)

Experiments:
[1] = Ratio of drug uptake in pons to cerebellum in anesthetized cynomolgus monkey after 145 mins postinjection; assay type: ADME, organism-based, Macaca fascicularis; conditions: in vivo
Pons [2] = assay: Drug uptake in anesthetized cynomolgus monkey brain pons after 55 mins postinjection; assay type: ADME, organism-based, Macaca fascicularis; conditions: in vivo
Pons [3] = assay: Drug uptake in anesthetized cynomolgus monkey brain pons after 215 mins postinjection; assay type: ADME, organism-based, Macaca fascicularis; conditions: in vivo
[4] = Drug uptake in anesthetized cynomolgus monkey brain occipital lobe after 45 mins postinjection; assay type: ADME, organism-based, Macaca fascicularis; conditions: in vivo, 0.75 h
[5] = Drug uptake in anesthetized cynomolgus monkey brain occipital lobe after 0.5 mins postinjection; assay type: ADME, organism-based, Macaca fascicularis; conditions: in vivo
Putamen [6] = assay: Drug uptake in anesthetized cynomolgus monkey brain putamen after 22.5 mins postinjection; assay type: ADME, organism-based, Macaca fascicularis; set-up: unit not given here; conditions: in vivo, 0.375 h
[7] = Ratio of drug uptake in putamen to cerebellum in anesthetized cynomolgus monkey after 9.5 mins postinjection; assay type: ADME, organism-based, Macaca fascicularis; conditions: in vivo
[8] = Ratio of drug uptake in thalamus to cerebellum in anesthetized cynomolgus monkey after 27.5 mins postinjection; assay type: ADME, organism-based, Macaca fascicularis; conditions: in vivo
[9] = Ratio of drug uptake in pons to cerebellum in anesthetized cynomolgus monkey after 95 mins postinjection; assay type: ADME, organism-based, Macaca fascicularis; conditions: in vivo
Medulla [10] = assay: Drug uptake in anesthetized cynomolgus monkey brain medulla after 175 mins postinjection; assay type: ADME, organism-based, Macaca fascicularis; conditions: in vivo
Thalamus [11] = assay: Drug uptake in anesthetized cynomolgus monkey brain thalamus after 4.5 mins postinjection; assay type: ADME, organism-based, Macaca fascicularis; set-up: unit not given here; conditions: in vivo, 0.075 h
Pons [12] = assay: Drug uptake in anesthetized cynomolgus monkey brain pons after 6.5 mins postinjection; assay type: ADME, organism-based, Macaca fascicularis; conditions: in vivo
Midbrain [13] = assay: Drug uptake in anesthetized cynomolgus monkey brain midbrain after 125 mins postinjection; assay type: ADME, organism-based, Macaca fascicularis; set-up: unit not given here; conditions: in vivo
Pons [14] = assay: Drug uptake in anesthetized cynomolgus monkey brain pons after 2.5 mins postinjection; assay type: ADME, organism-based, Macaca fascicularis; conditions: in vivo
Pons [15] = assay: Drug uptake in anesthetized cynomolgus monkey brain pons after 4.5 mins postinjection; assay type: ADME, organism-based, Macaca fascicularis; conditions: in vivo, 0.075 h
Medulla [16] = assay: Drug uptake in anesthetized cynomolgus monkey brain medulla after 22.5 mins postinjection; assay type: ADME, organism-based, Macaca fascicularis; conditions: in vivo, 0.375 h
[17] = Ratio of drug uptake in caudate to cerebellum in anesthetized cynomolgus monkey after 0.5 mins postinjection; assay type: ADME, organism-based, Macaca fascicularis; conditions: in vivo
Midbrain [18] = assay: Drug uptake in anesthetized cynomolgus monkey brain midbrain after 75 mins postinjection; assay type: ADME, organism-based, Macaca fascicularis; set-up: unit not given here; conditions: in vivo, 1.25 h
Caudate [19] = assay: Drug uptake in anesthetized cynomolgus monkey brain caudate after 2.5 mins postinjection; assay type: ADME, organism-based, Macaca fascicularis, Caudate nucleus; conditions: in vivo
Midbrain [20] = assay: Drug uptake in anesthetized cynomolgus monkey brain midbrain after 55 mins postinjection; assay type: ADME, organism-based, Macaca fascicularis; set-up: unit not given here; conditions: in vivo
Pons [21] = assay: Drug uptake in anesthetized cynomolgus monkey brain pons after 22.5 mins postinjection; assay type: ADME, organism-based, Macaca fascicularis; conditions: in vivo, 0.375 h
[22] = Drug uptake in anesthetized cynomolgus monkey brain occipital lobe after 22.5 mins postinjection; assay type: ADME, organism-based, Macaca fascicularis; conditions: in vivo, 0.375 h
Putamen [23] = assay: Drug uptake in anesthetized cynomolgus monkey brain putamen after 165 mins postinjection; assay type: ADME, organism-based, Macaca fascicularis; conditions: in vivo, 2.75 h
Medulla [24] = assay: Drug uptake in anesthetized cynomolgus monkey brain medulla after 105 mins postinjection; assay type: ADME, organism-based, Macaca fascicularis; conditions: in vivo, 1.75 h
[25] = Ratio of drug uptake in putamen to cerebellum in anesthetized cynomolgus monkey after 0.5 mins postinjection; assay type: ADME, organism-based, Macaca fascicularis; conditions: in vivo
Caudate [26] = assay: Drug uptake in anesthetized cynomolgus monkey brain caudate after 225 mins postinjection; assay type: ADME, organism-based, Macaca fascicularis, Caudate nucleus; conditions: in vivo, 3.75 h
Pons [27] = assay: Drug uptake in anesthetized cynomolgus monkey brain pons after 235 mins postinjection; assay type: ADME, organism-based, Macaca fascicularis; conditions: in vivo
Thalamus [28] = assay: Drug uptake in anesthetized cynomolgus monkey brain thalamus after 55 mins postinjection; assay type: ADME, organism-based, Macaca fascicularis; set-up: unit not given here; conditions: in vivo
[29] = Drug uptake in anesthetized cynomolgus monkey brain occipital lobe after 145 mins postinjection; assay type: ADME, organism-based, Macaca fascicularis; conditions: in vivo
Putamen [30] = assay: Drug uptake in anesthetized cynomolgus monkey brain putamen after 75 mins postinjection; assay type: ADME, organism-based, Macaca fascicularis; set-up: unit not given here; conditions: in vivo, 1.25 h
[31] = Ratio of drug uptake in medulla to cerebellum in anesthetized cynomolgus monkey after 35 mins postinjection; assay type: ADME, organism-based, Macaca fascicularis; conditions: in vivo
Thalamus [32] = assay: Drug uptake in anesthetized cynomolgus monkey brain thalamus after 115 mins postinjection; assay type: ADME, organism-based, Macaca fascicularis; set-up: unit not given here; conditions: in vivo
[33] = Drug uptake in anesthetized cynomolgus monkey brain cerebellum after 2.5 mins postinjection; assay type: ADME, organism-based, Macaca fascicularis; conditions: in vivo
[34] = Drug uptake in anesthetized cynomolgus monkey brain frontal lobe after 235 mins postinjection; assay type: ADME, organism-based, Macaca fascicularis; conditions: in vivo
[35] = Drug uptake in anesthetized cynomolgus monkey brain cerebellum after 225 mins postinjection; assay type: ADME, organism-based, Macaca fascicularis; conditions: in vivo, 3.75 h
[36] = Ratio of drug uptake in occipital lobe to cerebellum in anesthetized cynomolgus monkey after 175 mins postinjection; assay type: ADME, organism-based, Macaca fascicularis; conditions: in vivo
Thalamus [37] = assay: Drug uptake in anesthetized cynomolgus monkey brain thalamus after 135 mins postinjection; assay type: ADME, organism-based, Macaca fascicularis; set-up: unit not given here; conditions: in vivo, 2.25 h
Medulla [38] = assay: Drug uptake in anesthetized cynomolgus monkey brain medulla after 18.5 mins postinjection; assay type: ADME, organism-based, Macaca fascicularis; conditions: in vivo
Midbrain [39] = assay: Drug uptake in anesthetized cynomolgus monkey brain midbrain after 9.5 mins postinjection; assay type: ADME, organism-based, Macaca fascicularis; set-up: unit not given here; conditions: in vivo
Midbrain [40] = assay: Drug uptake in anesthetized cynomolgus monkey brain midbrain after 185 mins postinjection; assay type: ADME, organism-based, Macaca fascicularis; conditions: in vivo
Pons [41] = assay: Drug uptake in anesthetized cynomolgus monkey brain pons after 165 mins postinjection; assay type: ADME, organism-based, Macaca fascicularis; conditions: in vivo, 2.75 h
Pons [42] = assay: Drug uptake in anesthetized cynomolgus monkey brain pons after 1.5 mins postinjection; assay type: ADME, organism-based, Macaca fascicularis; conditions: in vivo, 0.025 h
Pons [43] = assay: Drug uptake in anesthetized cynomolgus monkey brain pons after 45 mins postinjection; assay type: ADME, organism-based, Macaca fascicularis; conditions: in vivo, 0.75 h
Pons [44] = assay: Drug uptake in anesthetized cynomolgus monkey brain pons after 195 mins postinjection; assay type: ADME, organism-based, Macaca fascicularis; conditions: in vivo, 3.25 h
Midbrain [45] = assay: Drug uptake in anesthetized cynomolgus monkey brain midbrain after 145 mins postinjection; assay type: ADME, organism-based, Macaca fascicularis; conditions: in vivo
[46] = Ratio of drug uptake in pons to cerebellum in anesthetized cynomolgus monkey after 195 mins postinjection; assay type: ADME, organism-based, Macaca fascicularis; conditions: in vivo, 3.25 h
[47] = Drug uptake in anesthetized cynomolgus monkey brain occipital lobe after 155 mins postinjection; assay type: ADME, organism-based, Macaca fascicularis; conditions: in vivo
[48] = Drug uptake in anesthetized cynomolgus monkey brain frontal lobe after 175 mins postinjection; assay type: ADME, organism-based, Macaca fascicularis; conditions: in vivo
Pons [49] = assay: Drug uptake in anesthetized cynomolgus monkey brain pons after 145 mins postinjection; assay type: ADME, organism-based, Macaca fascicularis; conditions: in vivo
[50] = Drug uptake in anesthetized cynomolgus monkey brain frontal lobe after 165 mins postinjection; assay type: ADME, organism-based, Macaca fascicularis; conditions: in vivo, 2.75 h
[51] = Ratio of drug uptake in midbrain to cerebellum in anesthetized cynomolgus monkey after 85 mins postinjection; assay type: ADME, organism-based, Macaca fascicularis; conditions: in vivo
Thalamus [52] = assay: Drug uptake in anesthetized cynomolgus monkey brain thalamus after 6.5 mins postinjection; assay type: ADME, organism-based, Macaca fascicularis; set-up: unit not given here; conditions: in vivo
Putamen [53] = assay: Drug uptake in anesthetized cynomolgus monkey brain putamen after 6.5 mins postinjection; assay type: ADME, organism-based, Macaca fascicularis; set-up: unit not given here; conditions: in vivo
[54] = Ratio of drug uptake in occipital lobe to cerebellum in anesthetized cynomolgus monkey after 195 mins postinjection; assay type: ADME, organism-based, Macaca fascicularis; conditions: in vivo, 3.25 h
Midbrain [55] = assay: Drug uptake in anesthetized cynomolgus monkey brain midbrain after 15.5 mins postinjection; assay type: ADME, organism-based, Macaca fascicularis; set-up: unit not given here; conditions: in vivo
Pons [56] = assay: Drug uptake in anesthetized cynomolgus monkey brain pons after 125 mins postinjection; assay type: ADME, organism-based, Macaca fascicularis; conditions: in vivo
[57] = Ratio of drug uptake in frontal lobe to cerebellum in anesthetized cynomolgus monkey after 125 mins postinjection; assay type: ADME, organism-based, Macaca fascicularis; conditions: in vivo
Midbrain [58] = assay: Drug uptake in anesthetized cynomolgus monkey brain midbrain after 6.5 mins postinjection; assay type: ADME, organism-based, Macaca fascicularis; set-up: unit not given here; conditions: in vivo
Midbrain [59] = assay: Drug uptake in anesthetized cynomolgus monkey brain midbrain after 215 mins postinjection; assay type: ADME, organism-based, Macaca fascicularis; conditions: in vivo
Thalamus [60] = assay: Drug uptake in anesthetized cynomolgus monkey brain thalamus after 155 mins postinjection; assay type: ADME, organism-based, Macaca fascicularis; set-up: unit not given here; conditions: in vivo
Medulla [61] = assay: Drug uptake in anesthetized cynomolgus monkey brain medulla after 3.5 mins postinjection; assay type: ADME, organism-based, Macaca fascicularis; conditions: in vivo
Thalamus [62] = assay: Drug uptake in anesthetized cynomolgus monkey brain thalamus after 45 mins postinjection; assay type: ADME, organism-based, Macaca fascicularis; set-up: unit not given here; conditions: in vivo, 0.75 h
Pons [63] = assay: Drug uptake in anesthetized cynomolgus monkey brain pons after 18.5 mins postinjection; assay type: ADME, organism-based, Macaca fascicularis; conditions: in vivo
[64] = Ratio of drug uptake in pons to cerebellum in anesthetized cynomolgus monkey after 35 mins postinjection; assay type: ADME, organism-based, Macaca fascicularis; conditions: in vivo
Pons [65] = assay: Drug uptake in anesthetized cynomolgus monkey brain pons after 225 mins postinjection; assay type: ADME, organism-based, Macaca fascicularis; conditions: in vivo, 3.75 h
Thalamus [66] = assay: Drug uptake in anesthetized cynomolgus monkey brain thalamus after 85 mins postinjection; assay type: ADME, organism-based, Macaca fascicularis; set-up: unit not given here; conditions: in vivo
Medulla [67] = assay: Drug uptake in anesthetized cynomolgus monkey brain medulla after 55 mins postinjection; assay type: ADME, organism-based, Macaca fascicularis; conditions: in vivo
Caudate [68] = assay: Drug uptake in anesthetized cynomolgus monkey brain caudate after 0.5 mins postinjection; assay type: ADME, organism-based, Macaca fascicularis, Caudate nucleus; conditions: in vivo

Question: What does the source list for O=C(OCCC[18F])C1C2CCC(CC1c1cccc(/C=C\I)c1)N2 (stereo not drawn)?
Answer: Ratio [1]: 1.6; Drug uptake (Pons [2]): 4.4; Drug uptake (Pons [3]): 3.11; Drug uptake [4]: 4.09; Drug uptake [5]: 0.01; Drug uptake (Putamen [6]): 4.71; Ratio [7]: 0.9; Ratio [8]: 1; Ratio [9]: 1.3; Drug uptake (Medulla [10]): 4.08; Drug uptake (Thalamus [11]): 2.07; Drug uptake (Pons [12]): 2.85; Drug uptake (Midbrain [13]): 4.58; Drug uptake (Pons [14]): 0.95; Drug uptake (Pons [15]): 1.92; Drug uptake (Medulla [16]): 4.94; Ratio [17]: 1; Drug uptake (Midbrain [18]): 5; Drug uptake (Caudate [19]): 0.64; Drug uptake (Midbrain [20]): 4.98; Drug uptake (Pons [21]): 4.1; Drug uptake [22]: 3.88; Drug uptake (Putamen [23]): 3.74; Drug uptake (Medulla [24]): 4.34; Ratio [25]: 1.5; Drug uptake (Caudate [26]): 2.46; Drug uptake (Pons [27]): 3.31; Drug uptake (Thalamus [28]): 4.89; Drug uptake [29]: 2.82; Drug uptake (Putamen [30]): 4.92; Ratio [31]: 1.1; Drug uptake (Thalamus [32]): 4.24; Drug uptake [33]: 1.12; Drug uptake [34]: 1.78; Drug uptake [35]: 1.87; Ratio [36]: 1.1; Drug uptake (Thalamus [37]): 4.02; Drug uptake (Medulla [38]): 4.6; Drug uptake (Midbrain [39]): 4; Drug uptake (Midbrain [40]): 4.05; Drug uptake (Pons [41]): 3.73; Drug uptake (Pons [42]): 0.21; Drug uptake (Pons [43]): 4.5; Drug uptake (Pons [44]): 3.26; Drug uptake (Midbrain [45]): 4.38; Ratio [46]: 1.5; Drug uptake [47]: 2.63; Drug uptake [48]: 2.05; Drug uptake (Pons [49]): 3.74; Drug uptake [50]: 2.08; Ratio [51]: 1.4; Drug uptake (Thalamus [52]): 3.06; Drug uptake (Putamen [53]): 3.28; Ratio [54]: 1.1; Drug uptake (Midbrain [55]): 4.45; Drug uptake (Pons [56]): 3.82; Ratio [57]: 0.9; Drug uptake (Midbrain [58]): 3.41; Drug uptake (Midbrain [59]): 3.69; Drug uptake (Thalamus [60]): 3.73; Drug uptake (Medulla [61]): 2.2; Drug uptake (Thalamus [62]): 4.84; Drug uptake (Pons [63]): 4.2; Ratio [64]: 0.9; Drug uptake (Pons [65]): 3.11; Drug uptake (Thalamus [66]): 4.59; Drug uptake (Medulla [67]): 5.06; Drug uptake (Caudate [68]): 0.01
